These results are taken from ChEMBL document CHEMBL1201861, “Genomics of Drug Sensitity in Cancer screening data, Wellcome Trust Sanger Institute”.

The test system of the first test is P30-OHK. Nature of the test: cells. It counts as functional, cell-based, Homo sapiens. To be noted: Homo sapiens, P30-OHK.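 Also: growth inhibition of the P30-OHK cell line, read out with a cell viability assay.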
Description: SANGER: Inhibition of human P30-OHK cell growth in a cell viability assay.
As usually defined, the IC50 is the midpoint of a concentration-inhibition curve. Turning to `C=CC(=O)N1CCCC(Nc2nc(Nc3ccc(N(C)C(=O)CC)cc3)nc3[nH]cnc23)C1` (centres undefined), the IC50 is above 10.2 µM.

Another test has as its system NCI-H1838. Briefly: cells. It counts as functional, cell-based, Homo sapiens. To be noted: Homo sapiens, NCI-H1838.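 Also: growth inhibition of NCI-H1838 cells, determined with a cell viability readout.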
Description: SANGER: Inhibition of human NCI-H1838 cell growth in a cell viability assay.
Regarding `C=CC(=O)N1CCCC(Nc2nc(Nc3ccc(N(C)C(=O)CC)cc3)nc3[nH]cnc23)C1` (centres undefined), the IC50 was above 10.2 µM.

The next test deals with BV-173. Briefly: cells. The test is classed as functional, cell-based, Homo sapiens. To be noted: Homo sapiens, BV-173.
Description: SANGER: Inhibition of human BV-173 cell growth in a cell viability assay.
Compound `C=CC(=O)N1CCCC(Nc2nc(Nc3ccc(N(C)C(=O)CC)cc3)nc3[nH]cnc23)C1` (centres undefined) showed an IC50 above 10.2 µM.

Another test relates to HAL-01. Nature of the test: cells. It counts as functional, cell-based, Homo sapiens. To be noted: Homo sapiens, HAL-01.
Description: SANGER: Inhibition of human HAL-01 cell growth in a cell viability assay.
Consider `C=CC(=O)N1CCCC(Nc2nc(Nc3ccc(N(C)C(=O)CC)cc3)nc3[nH]cnc23)C1` (centres undefined), for which the IC50 is above 10.2 µM.

The subject of a further test is RPMI-8226. Nature of the test: cells. The test is classed as functional, cell-based, Homo sapiens. As to conditions: Homo sapiens, RPMI-8226.
Description: SANGER: Inhibition of human RPMI-8226 cell growth in a cell viability assay.
The compound `C=CC(=O)N1CCCC(Nc2nc(Nc3ccc(N(C)C(=O)CC)cc3)nc3[nH]cnc23)C1` (centres undefined) displayed a half-inhibitory concentration (IC50) above 10.2 µM.

Another test deals with CW-2. Nature of the test: cells. The test is classed as functional, cell-based, Homo sapiens. To be noted: Homo sapiens, CW-2.
Description: SANGER: Inhibition of human CW-2 cell growth in a cell viability assay.
For `C=CC(=O)N1CCCC(Nc2nc(Nc3ccc(N(C)C(=O)CC)cc3)nc3[nH]cnc23)C1` (centres undefined), the half-inhibitory concentration (IC50) was above 10.2 µM.

The test system of a further test is D283 Med. Briefly: cells. As to conditions: Homo sapiens, D283 Med. It counts as functional, cell-based, Homo sapiens.
Description: SANGER: Inhibition of human D-283MED cell growth in a cell viability assay.
`C=CC(=O)N1CCCC(Nc2nc(Nc3ccc(N(C)C(=O)CC)cc3)nc3[nH]cnc23)C1` (centres undefined) registered an IC50 above 10.2 µM.

In another test the test system is ES7. Briefly: cells. It counts as functional, cell-based, Homo sapiens. As to conditions: Homo sapiens, ES7.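 Also: growth inhibition of cultured human ES7 cells, read out as cell viability.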
Description: SANGER: Inhibition of human ES7 cell growth in a cell viability assay.
Turning to `C=CC(=O)N1CCCC(Nc2nc(Nc3ccc(N(C)C(=O)CC)cc3)nc3[nH]cnc23)C1` (centres undefined), the IC50 was above 10.2 µM.

The next test deals with TE-8. Briefly: cells. As to conditions: Homo sapiens, TE-8. The test is classed as functional, cell-based, Homo sapiens.
Description: SANGER: Inhibition of human TE-8 cell growth in a cell viability assay.
Compound `C=CC(=O)N1CCCC(Nc2nc(Nc3ccc(N(C)C(=O)CC)cc3)nc3[nH]cnc23)C1` (centres undefined) registered an IC50 above 10.2 µM.

In a further test the test system is NEC8. Briefly: cells. The test is classed as functional, cell-based, Homo sapiens. As to conditions: Homo sapiens, NEC8.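 Also: growth inhibition of human NEC8 cells, read out by a cell viability assay.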
Description: SANGER: Inhibition of human NEC8 cell growth in a cell viability assay.
Take `C=CC(=O)N1CCCC(Nc2nc(Nc3ccc(N(C)C(=O)CC)cc3)nc3[nH]cnc23)C1` (centres undefined): the IC50 is above 10.2 µM.

For another test, the system named is GCIY. Briefly: cells. The test is classed as functional, cell-based, Homo sapiens. To be noted: Homo sapiens, GCIY.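 Also: growth inhibition of the human GCIY cell line, read out by a cell viability assay.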
Description: SANGER: Inhibition of human GCIY cell growth in a cell viability assay.
`C=CC(=O)N1CCCC(Nc2nc(Nc3ccc(N(C)C(=O)CC)cc3)nc3[nH]cnc23)C1` (centres undefined): the IC50 is above 10.2 µM.

A further test has as its system TE-12. Nature of the test: cells. The test is classed as functional, cell-based, Homo sapiens. To be noted: Homo sapiens, TE-12.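 Also: growth inhibition of TE-12 cells, read out by a cell viability assay.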
Description: SANGER: Inhibition of human TE-12 cell growth in a cell viability assay.
`C=CC(=O)N1CCCC(Nc2nc(Nc3ccc(N(C)C(=O)CC)cc3)nc3[nH]cnc23)C1` (centres undefined) registered an IC50 of 2.35 µM.

A further test relates to A101D. Briefly: cells. It counts as functional, cell-based, Homo sapiens. As to conditions: Homo sapiens, A101D.
Description: SANGER: Inhibition of human A101D cell growth in a cell viability assay.
For `C=CC(=O)N1CCCC(Nc2nc(Nc3ccc(N(C)C(=O)CC)cc3)nc3[nH]cnc23)C1` (centres undefined), the IC50 was above 10.2 µM.

The subject of a further test is NCI-H1355. Nature of the test: cells. To be noted: Homo sapiens, NCI-H1355. The test is classed as functional, cell-based, Homo sapiens.
Description: SANGER: Inhibition of human NCI-H1355 cell growth in a cell viability assay.
As to `C=CC(=O)N1CCCC(Nc2nc(Nc3ccc(N(C)C(=O)CC)cc3)nc3[nH]cnc23)C1` (centres undefined), the 50% inhibitory concentration (IC50) is above 10.2 µM.

For a further test, the system named is LNCaP-Clone-FGC. Nature of the test: cells. To be noted: Homo sapiens, LNCaP-Clone-FGC. The test is classed as functional, cell-based, Homo sapiens.
Description: SANGER: Inhibition of human LNCaP-Clone-FGC cell growth in a cell viability assay.
As to `C=CC(=O)N1CCCC(Nc2nc(Nc3ccc(N(C)C(=O)CC)cc3)nc3[nH]cnc23)C1` (centres undefined), the IC50 was above 10.2 µM.

Another test relates to U-87 MG. Nature of the test: cells. It counts as functional, cell-based, Homo sapiens, U-87MG ATCC. As to conditions: Homo sapiens, U-87 MG.
Description: SANGER: Inhibition of human U-87-MG cell growth in a cell viability assay.
For `C=CC(=O)N1CCCC(Nc2nc(Nc3ccc(N(C)C(=O)CC)cc3)nc3[nH]cnc23)C1` (centres undefined), the 50% inhibitory concentration (IC50) was above 10.2 µM.

Another test relates to ETK-1. Nature of the test: cells. To be noted: Homo sapiens, ETK-1. It counts as functional, cell-based, Homo sapiens.
Description: SANGER: Inhibition of human ETK-1 cell growth in a cell viability assay.
The compound `C=CC(=O)N1CCCC(Nc2nc(Nc3ccc(N(C)C(=O)CC)cc3)nc3[nH]cnc23)C1` (centres undefined) came in with an IC50 above 10.2 µM.

A further test deals with SF-268. Nature of the test: cells. It counts as functional, cell-based, Homo sapiens. As to conditions: Homo sapiens, SF-268.
Description: SANGER: Inhibition of human SF268 cell growth in a cell viability assay.
In turn, `C=CC(=O)N1CCCC(Nc2nc(Nc3ccc(N(C)C(=O)CC)cc3)nc3[nH]cnc23)C1` (centres undefined) showed an IC50 above 10.2 µM.

In a further test the test system is EOL1. Briefly: cells. It counts as functional, cell-based, Homo sapiens. To be noted: Homo sapiens, EOL1.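 Also: growth inhibition of EoL-1 cells, read out by a cell viability assay.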
Description: SANGER: Inhibition of human EoL-1-cell cell growth in a cell viability assay.
`C=CC(=O)N1CCCC(Nc2nc(Nc3ccc(N(C)C(=O)CC)cc3)nc3[nH]cnc23)C1` (centres undefined) had an IC50 of 4.4 µM.

The subject of another test is MSTO-211H. Briefly: cells. As to conditions: Homo sapiens, MSTO-211H. The test is classed as functional, cell-based, Homo sapiens.
Description: SANGER: Inhibition of human MSTO-211H cell growth in a cell viability assay.
Compound `C=CC(=O)N1CCCC(Nc2nc(Nc3ccc(N(C)C(=O)CC)cc3)nc3[nH]cnc23)C1` (centres undefined) registered an IC50 above 10.2 µM.

Another test has as its system SK-N-DZ. Briefly: cells. The test is classed as functional, cell-based, Homo sapiens. As to conditions: Homo sapiens, SK-N-DZ; read-out: IC50.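 Also: growth inhibition of the cancer cell line, read out through a viability assay.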
Description: SANGER: Inhibition of human SK-N-DZ cell growth in a cell viability assay.
`C=CC(=O)N1CCCC(Nc2nc(Nc3ccc(N(C)C(=O)CC)cc3)nc3[nH]cnc23)C1` (centres undefined): the IC50 is above 10.2 µM.

For a further test, the system named is KINGS-1. Briefly: cells. As to conditions: Homo sapiens, KINGS-1. The test is classed as functional, cell-based, Homo sapiens.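 Also: cell viability assay measuring suppression of KINGS-1 cell growth.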
Description: SANGER: Inhibition of human KINGS-1 cell growth in a cell viability assay.
In turn, `C=CC(=O)N1CCCC(Nc2nc(Nc3ccc(N(C)C(=O)CC)cc3)nc3[nH]cnc23)C1` (centres undefined) came in with an IC50 above 10.2 µM.

The test system of another test is COLO-320-HSR. Briefly: cells. The test is classed as functional, cell-based, Homo sapiens. As to conditions: Homo sapiens, COLO-320-HSR.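 Also: growth inhibition of COLO-320-HSR cells, determined with a cell viability assay.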
Description: SANGER: Inhibition of human COLO-320-HSR cell growth in a cell viability assay.
On to `C=CC(=O)N1CCCC(Nc2nc(Nc3ccc(N(C)C(=O)CC)cc3)nc3[nH]cnc23)C1` (centres undefined), for which the 50% inhibitory concentration (IC50) was above 10.2 µM.

The next test has as its system HEL. Briefly: cells. The test is classed as functional, cell-based, Homo sapiens. As to conditions: Homo sapiens, HEL.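 Also: growth inhibition of HEL cells, read out with a cell viability assay.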
Description: SANGER: Inhibition of human HEL cell growth in a cell viability assay.
In turn, `C=CC(=O)N1CCCC(Nc2nc(Nc3ccc(N(C)C(=O)CC)cc3)nc3[nH]cnc23)C1` (centres undefined) yielded an IC50 above 10.2 µM.
